Data from patent publication US6395526B1, “DNA polymerase” (Takara Shuzo Co., Ltd., priority 1995, dated 2002).

Key:
[1] = molecular target: T1, DNA polymerase of the present invention (Pyrococcus furiosus, UniProt P81409); assay: Inhibition by aphidicolin of the DNA polymerase of the present invention; assay type: biochemical; settings: 2.0 mM aphidicolin
T1 construct: made in house; host or cells: Escherichia coli JM109 carrying pFU1001 (genomic XbaI-XbaI fragment in pTV118N)
T1 sequence (P81409 1-1263): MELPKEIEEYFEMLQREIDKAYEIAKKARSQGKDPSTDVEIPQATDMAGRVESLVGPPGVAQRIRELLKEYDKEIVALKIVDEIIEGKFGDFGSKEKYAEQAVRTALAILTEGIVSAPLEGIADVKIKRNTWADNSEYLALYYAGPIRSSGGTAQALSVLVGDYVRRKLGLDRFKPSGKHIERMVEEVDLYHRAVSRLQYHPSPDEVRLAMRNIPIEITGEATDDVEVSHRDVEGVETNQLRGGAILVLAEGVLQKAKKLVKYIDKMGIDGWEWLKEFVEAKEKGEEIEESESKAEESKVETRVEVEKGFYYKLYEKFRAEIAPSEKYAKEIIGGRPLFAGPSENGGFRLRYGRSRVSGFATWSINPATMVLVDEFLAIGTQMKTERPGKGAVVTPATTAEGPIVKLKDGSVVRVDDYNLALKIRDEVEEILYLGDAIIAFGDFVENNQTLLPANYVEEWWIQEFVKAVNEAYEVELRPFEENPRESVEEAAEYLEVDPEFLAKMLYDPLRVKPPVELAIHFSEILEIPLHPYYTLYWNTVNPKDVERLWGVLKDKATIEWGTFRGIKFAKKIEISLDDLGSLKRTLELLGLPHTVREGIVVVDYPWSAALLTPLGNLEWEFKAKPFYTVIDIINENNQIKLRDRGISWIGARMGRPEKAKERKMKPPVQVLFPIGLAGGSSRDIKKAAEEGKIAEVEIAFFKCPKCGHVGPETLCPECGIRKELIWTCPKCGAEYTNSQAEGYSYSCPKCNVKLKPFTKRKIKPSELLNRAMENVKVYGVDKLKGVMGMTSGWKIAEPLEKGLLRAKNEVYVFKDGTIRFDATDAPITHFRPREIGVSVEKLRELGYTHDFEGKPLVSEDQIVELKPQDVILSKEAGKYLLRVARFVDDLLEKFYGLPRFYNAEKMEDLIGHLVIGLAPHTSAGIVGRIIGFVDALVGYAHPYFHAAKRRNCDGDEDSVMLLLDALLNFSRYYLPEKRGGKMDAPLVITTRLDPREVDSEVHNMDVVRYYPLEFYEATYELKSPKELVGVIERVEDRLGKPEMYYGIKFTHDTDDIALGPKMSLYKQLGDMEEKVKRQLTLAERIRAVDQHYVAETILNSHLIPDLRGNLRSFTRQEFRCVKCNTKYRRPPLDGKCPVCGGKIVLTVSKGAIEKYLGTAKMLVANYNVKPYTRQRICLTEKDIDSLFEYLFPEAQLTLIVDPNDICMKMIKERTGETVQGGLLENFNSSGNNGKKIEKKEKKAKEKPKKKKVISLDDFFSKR
T1 sequence (P81412 1-613 partner): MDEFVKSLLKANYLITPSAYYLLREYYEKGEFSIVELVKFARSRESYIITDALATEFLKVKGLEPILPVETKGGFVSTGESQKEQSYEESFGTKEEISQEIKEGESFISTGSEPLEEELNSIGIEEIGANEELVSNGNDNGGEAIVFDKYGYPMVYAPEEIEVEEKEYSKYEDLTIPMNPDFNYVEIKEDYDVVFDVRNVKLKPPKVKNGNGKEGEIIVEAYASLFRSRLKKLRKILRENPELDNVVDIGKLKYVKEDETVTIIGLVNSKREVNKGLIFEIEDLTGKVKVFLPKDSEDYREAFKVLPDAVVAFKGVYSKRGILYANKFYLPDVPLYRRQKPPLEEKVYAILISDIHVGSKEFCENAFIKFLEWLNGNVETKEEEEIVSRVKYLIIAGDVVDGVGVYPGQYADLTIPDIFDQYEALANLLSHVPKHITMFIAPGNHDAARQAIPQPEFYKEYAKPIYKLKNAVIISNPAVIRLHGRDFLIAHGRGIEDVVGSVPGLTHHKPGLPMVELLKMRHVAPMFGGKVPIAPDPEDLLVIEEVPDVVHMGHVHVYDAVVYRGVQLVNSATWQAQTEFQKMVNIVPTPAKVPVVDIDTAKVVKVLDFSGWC
Procedure: (§1) In order to compare the modes of inhibition by inhibitors, the modes of inhibition of the DNA polymerase of the present invention and an α-type DNA polymerase derived from Pyrococcus furiousus (Pfu DNA polymerase, manufactured by Stratagene), a known DNA polymerase, were compared using a specific inhibitor of α-type DNA polymerases, aphidicolin. The activity changes were examined, while the aphidicolin concentration was increased from 0 to 2.0 mM in the presence of 20 mM Tris-HCl, pH 7.7, 15 mM MgCl2, 2 mM 2-mercaptoethanol, 0.2 mg/ml activated DNA, and 40 μM each of dATP, dGTP, dCTP and dTTP.

Pfu DNA polymerase = molecular target: T2, Pfu DNA polymerase (Pyrococcus furiosus, UniProt P61875); assay: Inhibition by aphidicolin of Pfu DNA polymerase; assay type: biochemical, Pyrococcus furiousus; settings: 1.0 mM aphidicolin
T2 construct: purchased Stratagene
T2 sequence (P61875 1-775): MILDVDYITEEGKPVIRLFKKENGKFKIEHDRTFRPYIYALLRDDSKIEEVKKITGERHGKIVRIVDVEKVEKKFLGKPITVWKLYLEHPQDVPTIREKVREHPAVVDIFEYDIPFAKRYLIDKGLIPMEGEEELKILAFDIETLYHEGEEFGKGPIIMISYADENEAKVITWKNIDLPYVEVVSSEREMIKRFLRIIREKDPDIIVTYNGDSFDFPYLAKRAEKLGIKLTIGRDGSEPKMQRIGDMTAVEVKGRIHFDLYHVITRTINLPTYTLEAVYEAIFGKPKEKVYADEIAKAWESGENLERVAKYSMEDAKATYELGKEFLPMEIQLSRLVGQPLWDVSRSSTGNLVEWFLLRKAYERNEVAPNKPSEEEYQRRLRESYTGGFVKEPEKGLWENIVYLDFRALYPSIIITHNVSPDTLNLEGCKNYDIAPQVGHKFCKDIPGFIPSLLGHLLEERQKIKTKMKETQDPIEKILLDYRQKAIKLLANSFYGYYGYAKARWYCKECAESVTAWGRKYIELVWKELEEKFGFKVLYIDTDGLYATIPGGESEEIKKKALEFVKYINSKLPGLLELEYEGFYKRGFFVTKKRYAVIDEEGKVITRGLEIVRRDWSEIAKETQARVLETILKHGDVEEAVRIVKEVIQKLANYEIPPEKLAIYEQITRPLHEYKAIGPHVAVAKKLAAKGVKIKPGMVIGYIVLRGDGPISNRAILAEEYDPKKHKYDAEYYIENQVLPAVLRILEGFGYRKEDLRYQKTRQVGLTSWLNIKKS
Procedure: as §1

Question: How did the “inhibition of the DNA polymerase of the present invention” value [1] turn out when `C[C@@]1(CO)[C@H](O)CC[C@@]2(C)[C@H]1CC[C@H]1C[C@@H]3C[C@@]12CC[C@]3(O)CO` [aphidicolin] was run?
Answer: not inhibited at all

Question: What about the “activity of the Pfu DNA polymerase relative to the original activity” value (Pfu DNA polymerase) of the same compound?
Answer: 20%
